Measurements from ChEMBL document CHEMBL1201862, “PubChem BioAssay data set” (2004).
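Each compound was tested at five concentrations against cells in 96-well plates for 48 hours. Here, GI50 denotes the concentration required for 50% inhibition of growth.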 Active and inactive are the calls of the source. No stated cut-off is given here; in the data, active = GI50 up to about 1.1 µM and inactive = higher.

Assays:
Test in all cases: NCI anticancer screen, dose series, 48 h
[1] = test system: EKVX
[2] = test system: PC-3
[3] = test system: Hs-578T
[4] = test system: RXF 393
[5] = test system: NCI/ADR-RES
[6] = test system: MCF7
[7] = test system: SN12C
[8] = test system: UACC-257
[9] = test system: M14
[10] = test system: NCI-H460
[11] = test system: COLO 205
[12] = test system: LOX IMVI
[13] = test system: SNB-19
[14] = test system: CCRF-CEM
[15] = test system: SR
[16] = test system: SF-539
[17] = test system: SK-MEL-28
[18] = test system: MOLT-4
[19] = test system: SW-620
[20] = test system: OVCAR-8
[21] = test system: OVCAR-4
[22] = test system: KM12
[23] = test system: UO-31
[24] = test system: A549
[25] = test system: 786-0
[26] = test system: NCI-H23
[27] = test system: HCT-116
[28] = test system: NCI-H226
[29] = test system: HCC 2998
[30] = test system: SF-268
[31] = test system: HL-60
[32] = test system: MDA-N
[33] = test system: SK-OV-3
[34] = test system: HOP-92
[35] = test system: SK-MEL-5
[36] = test system: ACHN
[37] = test system: TK-10
[38] = test system: T47D
[39] = test system: HT-29
[40] = test system: SF-295
[41] = test system: RPMI-8226
[42] = test system: MDA-MB-231
[43] = test system: IGROV-1
[44] = test system: BT-549
[45] = test system: MDA-MB-435
[46] = test system: HCT-15
[47] = test system: SK-MEL-2
[48] = test system: U-251
[49] = test system: OVCAR-3
[50] = test system: K562
[51] = test system: UACC-62
[52] = test system: OVCAR-5
[53] = test system: CAKI-1
[54] = test system: HOP-62
[55] = test system: DU-145
[56] = test system: NCI-H522
[57] = test system: SNB-75
[58] = test system: Malme-3M
[59] = test system: A498

In the case of `Cc1ccc(NC(=O)C(=O)CC(=O)c2sc(Nc3c(C)cccc3C)nc2C)cc1C`, the GI50 [1] was > 100 µM (inactive), the GI50 [2] was > 100 µM (inactive) and the GI50 [3] was > 100 µM (inactive). The GI50 [4] was > 100 µM (inactive), the GI50 [5] was > 100 µM (inactive) and the GI50 [6] was > 100 µM (inactive). The GI50 [7] was > 100 µM (inactive), the GI50 [8] was > 100 µM (inactive) and the GI50 [9] was > 100 µM (inactive). The GI50 [10] was > 100 µM (inactive), the GI50 [11] was > 100 µM (inactive) and the GI50 [12] was > 100 µM (inactive). For the same compound, the GI50 [13] was > 100 µM (inactive), the GI50 [14] was > 100 µM (inactive) and the GI50 [15] was 37.3 µM (inactive). For the same compound, the GI50 [16] was > 100 µM (inactive), the GI50 [17] was > 100 µM (inactive) and the GI50 [18] was > 100 µM (inactive). The GI50 [19] was > 100 µM (inactive), the GI50 [20] was > 100 µM (inactive) and the GI50 [21] was > 100 µM (inactive). The GI50 [22] was > 100 µM (inactive), the GI50 [23] was 81.8 µM (inactive) and the GI50 [24] was > 100 µM (inactive). The GI50 [25] was > 100 µM (inactive), the GI50 [26] was > 100 µM (inactive) and the GI50 [27] was > 100 µM (inactive). For the same compound, the GI50 [28] was > 100 µM (inactive), the GI50 [29] was > 100 µM (inactive) and the GI50 [30] was > 100 µM (inactive). The GI50 [31] was 55.2 µM (inactive), the GI50 [32] was > 100 µM (inactive) and the GI50 [33] was > 100 µM (inactive). The GI50 [34] was > 100 µM (inactive), the GI50 [35] was > 100 µM (inactive) and the GI50 [36] was > 100 µM (inactive). For the same compound, the GI50 [37] was > 100 µM (inactive), the GI50 [38] was > 100 µM (inactive) and the GI50 [39] was > 100 µM (inactive). The GI50 [40] was > 100 µM (inactive), the GI50 [41] was > 100 µM (inactive) and the GI50 [42] was > 100 µM (inactive). For the same compound, the GI50 [43] was > 100 µM (inactive), the GI50 [44] was > 100 µM (inactive) and the GI50 [45] was > 100 µM (inactive). The GI50 [46] was > 100 µM, the GI50 [47] was > 100 µM (inactive) and the GI50 [48] was > 100 µM (inactive). The GI50 [49] was > 100 µM (inactive), the GI50 [50] was > 100 µM (inactive) and the GI50 [51] was > 100 µM (inactive). For the same compound, the GI50 [52] was > 100 µM (inactive), the GI50 [53] was > 100 µM (inactive) and the GI50 [54] was > 100 µM (inactive). For the same compound, the GI50 [55] was > 100 µM (inactive) and the GI50 [56] was 71.4 µM (inactive).

`O=c1c(-c2ccccc2)c(SCCN2CCCC2)n(-c2ccccc2)c(=S)n1-c1ccccc1` was tested, and the GI50 [1] was > 100 µM (inactive), the GI50 [2] was > 100 µM (inactive) and the GI50 [3] was > 100 µM (inactive). The GI50 [4] was > 100 µM (inactive), the GI50 [5] was > 100 µM (inactive) and the GI50 [6] was > 100 µM (inactive). For the same compound, the GI50 [7] was > 100 µM (inactive), the GI50 [8] was > 100 µM (inactive) and the GI50 [9] was > 100 µM (inactive). For the same compound, the GI50 [10] was > 100 µM (inactive), the GI50 [11] was > 100 µM (inactive) and the GI50 [12] was > 100 µM (inactive). For the same compound, the GI50 [13] was > 100 µM (inactive), the GI50 [14] was > 100 µM (inactive) and the GI50 [16] was > 100 µM (inactive). For the same compound, the GI50 [17] was > 100 µM (inactive), the GI50 [18] was > 100 µM (inactive) and the GI50 [19] was > 100 µM (inactive). The GI50 [20] was > 100 µM (inactive), the GI50 [21] was > 100 µM (inactive) and the GI50 [22] was > 100 µM (inactive). The GI50 [24] was > 100 µM (inactive), the GI50 [25] was > 100 µM (inactive) and the GI50 [26] was > 100 µM (inactive). The GI50 [57] was 34.4 µM (inactive), the GI50 [27] was > 100 µM (inactive) and the GI50 [28] was 83.2 µM (inactive). The GI50 [29] was > 100 µM (inactive), the GI50 [30] was > 100 µM (inactive) and the GI50 [31] was > 100 µM (inactive). For the same compound, the GI50 [32] was > 100 µM (inactive), the GI50 [33] was > 100 µM (inactive) and the GI50 [34] was 71.9 µM (inactive). For the same compound, the GI50 [36] was > 100 µM (inactive), the GI50 [37] was > 100 µM (inactive) and the GI50 [38] was > 100 µM (inactive). The GI50 [39] was > 100 µM (inactive), the GI50 [40] was > 100 µM (inactive) and the GI50 [41] was > 100 µM (inactive). For the same compound, the GI50 [42] was > 100 µM (inactive), the GI50 [43] was > 100 µM (inactive) and the GI50 [44] was > 100 µM (inactive). The GI50 [45] was > 100 µM (inactive), the GI50 [46] was > 100 µM and the GI50 [47] was > 100 µM (inactive). For the same compound, the GI50 [58] was > 100 µM (inactive), the GI50 [48] was > 100 µM (inactive) and the GI50 [50] was > 100 µM (inactive). For the same compound, the GI50 [51] was > 100 µM (inactive), the GI50 [52] was > 100 µM (inactive) and the GI50 [59] was > 100 µM (inactive). The GI50 [53] was > 100 µM (inactive), the GI50 [54] was > 100 µM (inactive) and the GI50 [55] was > 100 µM (inactive). The GI50 [56] was > 100 µM (inactive).
